In patent US6270780A, “Cosmetic compositions containing resveratrol” (Chesebrough-Pond's USA Co., division of Conopco, priority 1998, dated 2001):
Where two headings read alike, the source gives them in different places.

Legend:
Transglutaminase (TG-1) = assay: ELISA based TG-1 assay, differentiation of keratinocytes; type: cell-based, human
From the text: Methodology for Transglutaminase Measurement
During the process of terminal differentiation in the epidermis, a 15 nm thick layer of protein, known as the cornified envelope (CE) is formed on the inner surface of the cell periphery. The CE is composed of numerous distinct proteins which have been cross-linked together by the formation of N-((-glutamyl) lysine isodipeptide bonds catalyzed by the action of at least two different transglutaminases expressed in the epidermis. Transglutaminase (TG-1) is expressed in abundance in the differentiated layers of the epidermis, especially the granular layer, but is absent in the undifferentiated basal epidermis. Thus, TG-1 is a useful marker of epidermal keratinocyte differentiation with high TG-1 levels indicating a more differentiated state. An ELISA based TG-1 assay, using a TG-1 antibody, was used to assess the state of differentiation of the cultured keratinocytes in the examples that follow.
The level of TG-1 was measured as follows. Keratinocytes were obtained as described in Example 2. For the experiment, about 30,000 cells were plated into each well of 6 well plates and grown for five days, until the cells reach about 20-30% confluence. 2 ml/well of fresh KGM were added daily with 2 μl of 2-50 mM resveratrol in DMSO for 3 days. Control wells also received 2 μl of DMSO. After 3 days of treatment, cells were washed twice with PBS and placed in freezer for 2 hours. Cells were then thawed for 2 hours. DNA content of the cells were quantitated by using the DNA binding flurophore, bis-benzimidazole (Hoechst 33258) and measuring the specific fluorescence of the DNA-bound flurophore at 450 nm (excitation at 360 nm).
TG-1 levels of the cells in the wells were determined using the TG-1 specific monoclonal antibody (BC1) (first antibody) (obtained from Amersham Life Sciences) and using a peroxidase labeled rabbit antimouse IgG fragment (second antibody). The plates were blocked by 5% nonfat milk in TBS (Tris buffered saline, 0.01 M Tris, 0.150 M sodium chloride, pH 8.0) for one hour followed by 2 hour incubation with the first antibody (1:4,000 fold dilution) in 1% milk/TBS at room temperature. After rinsing the plates three times with 1% milk/TBS containing 0.05% Tween 20, the plates were incubated with 1:4000 dilution of the second antibody at room temperature for two hours. The plates were rinsed three times with 1% milk/TBS/Tween and three times with TBS. Color was developed by incubation with o-phenylene diamine and hydrogen peroxide. The absorbance was read at 492 nm on a Ultrospec 3000 spectrophotometer (Pharmacia Biotech) and TG-1 levels were calculated as Abs/DNA fluorescence. The mean±standard deviation of at least 3 separate wells were used for calculation and statistical analysis of the data. Values were expressed as absorbance for TG-1 per arbitrary unit of DNA fluorescence of triplicate wells±standard deviation. Results were also expressed as % of control.

ZR75 cells = assay: 3H-thymidine incorporation (DNA synthesis) / proliferation of ZR75 cells, estrogen-like activity; type: cell-based, human
From the text: The following test was employed to determine whether resveratrol has an estrogen-like activity:
The ZR75 cell line is a ductal breast carcinoma cell line, originally isolated from malignant mammary epithelium of a person (Engel et al., Human breast carcinoma cells in continuous culture: A review., Cancer Res., 38: 4327-4339, 1978). This cell line contains receptors for estrogen, progesterone and other steroid hormones, but responds through an increase in proliferation only to estrogen. The cell line contains high affinity estrogen-specific receptors. Therefore, this cell line is used for testing estrogen-like activity (Markiewicz et al., In vitro bioassays of non-steroidal phytoestrogens, J. Steroid Biochem. Molec. Biol., 45: 399-405, 1993)
Methodology Used for Determining the Rate of DNA Synthesis in Cells
The incorporation of ^3 H-thymidine by cultured cells was used as an assay of cell proliferation (both for ZR75 cells and for keratinocytes). Thymidine is one of four deoxynucleosides which are the monomeric units of DNA. Prior to cell division of a somatic cell, the complete genome of the cell undergoing cell division is replicated. This involves large scale DNA synthesis by the cell and enables both daughter cells to receive identical copies of the genetic material. When ^3 H-thymidine is included in the culture media of cells which are synthesizing DNA in preparation for cell division then the labeled thymidine is incorporated into the newly synthesized DNA. The extent of incorporation of ^3 H-thymidine into a population of cells is proportional to the rate of DNA synthesis by this population of cells and therefore an indication of their cellular proliferation.
ZR75 cells (from American Type Culture Collection, Rockville, Md.) were grown in RPMI1640 media (from Gibco Life Technologies) with 10% fetal bovine serum (FBS) , 100 units penicillin per ml and 100 units of streptomycin per ml. All incubations were performed at 37° C. in 5% CO2. […] The cells were seeded at a density of one million per 75 cm2 flask. For the experiment, the cells were seeded in 24 well plates at 100,000 cells per ml per well.
After growing for 24 hours, the media was removed, the cells were washed with PBS (phosphate buffered saline, 0.01 M sodium phosphate, 0.138 M sodium chloride, 0.0027 M potassium chloride, pH 7.4) and 1 ml of RPMI 1640 without serum (but with streptomycin and penicillin) was added. Stock solutions of resveratrol in dimethyl sulfoxide (DMSO) and estradiol in water were prepared. […] After another 24 hours, one μCi of [methyl-3H] thymidine was added to each well. The media was removed after 24 hours. The cells were washed once in PBS, the PBS was removed completely and the cells were left on ice to incubate with 1 ml per well of 10% TCA (trichloroacetic acid) for 30 minutes. The plates were washed 3 times with 5% TCA to remove all traces of thymidine which wasn't incorporated into the cells. 500 μl of 0.1M sodium hydroxide was added to each well and the plates were incubated at room temperature for at least 30 minutes. 250 μl of each sample was transferred to scintillation vials and after adding 5 mL of counting fluid, the vials were counted for 5 minutes each on a setting for tritium. […] Values were expressed as mean of quadruplicate wells +/- standard deviation.

[1] = Homo sapiens, ZR75, read-out: DNA synthesis (% of Control), EXPT 1, control DMSO
[2] = Homo sapiens, ZR75, read-out: DNA synthesis (% of Control), EXPT 2, control DMSO

Oc1ccc(/C=C/c2cc(O)cc(O)c2)cc1 [Resveratrol, 3,4'5-stilbenetriol]
transglutaminase expression of keratinocytes vs control (Transglutaminase (TG-1); Experiment 1, 10 μM): not significantly different from control
TG-1 levels/μg DNA (Transglutaminase (TG-1); Experiment 1, 10 μM, 3 days): 8.49 ± 1.77 /μg DNA
TG-1 levels/μg DNA (Transglutaminase (TG-1); Experiment 1, 25 μM, 3 days): 10.92 ± 2.29 /μg DNA
TG-1 levels/μg DNA (Transglutaminase (TG-1); Experiment 1, 50 μM, 3 days): 22.2 ± 1.50 /μg DNA
TG-1 levels/μg DNA (Transglutaminase (TG-1); Experiment 2, 2 μM, 3 days): 3.42 ± 0.42 /μg DNA
TG-1 levels/μg DNA (Transglutaminase (TG-1); Experiment 2, 5 μM, 3 days): 3.51 ± 0.41 /μg DNA
TG-1 levels/μg DNA (Transglutaminase (TG-1); Experiment 2, 10 μM, 3 days): 3.61 ± 0.17 /μg DNA
TG-1 levels/μg DNA (Transglutaminase (TG-1); Experiment 2, 25 μM, 3 days): 4.69 ± 0.21 /μg DNA
TG-1 levels/μg DNA (Transglutaminase (TG-1); Experiment 2, 50 μM, 3 days): 4.65 ± 0.46 /μg DNA
keratinocyte differentiation (Transglutaminase (TG-1); Experiment 2, all concentrations of 2 μM and higher): significantly increased keratinocyte differentiation
activity at 10 µM (Transglutaminase (TG-1); Homo sapiens, Keratinocyte, 72 h, Experiment 1, 10 μM, 3 days, read-out: TG-1 levels, % of control): 126%
activity at 25 µM (Transglutaminase (TG-1); Homo sapiens, Keratinocyte, 72 h, Experiment 1, 25 μM, 3 days, read-out: TG-1 levels, % of control): 162%
activity at 50 µM (Transglutaminase (TG-1); Homo sapiens, Keratinocyte, 72 h, Experiment 1, 50 μM, 3 days, read-out: TG-1 levels, % of control): 329%
activity at 2 µM (Transglutaminase (TG-1); Homo sapiens, Keratinocyte, 72 h, Experiment 2, 2 μM, 3 days, read-out: TG-1 levels, % of control): 179%
activity at 5 µM (Transglutaminase (TG-1); Homo sapiens, Keratinocyte, 72 h, Experiment 2, 5 μM, 3 days, read-out: TG-1 levels, % of control): 184%
activity at 10 µM (Transglutaminase (TG-1); Homo sapiens, Keratinocyte, 72 h, Experiment 2, 10 μM, 3 days, read-out: TG-1 levels, % of control): 189%
activity at 25 µM (Transglutaminase (TG-1); Homo sapiens, Keratinocyte, 72 h, Experiment 2, 25 μM, 3 days, read-out: TG-1 levels, % of control): 246%
activity at 50 µM (Transglutaminase (TG-1); Homo sapiens, Keratinocyte, 72 h, Experiment 2, 50 μM, 3 days, read-out: TG-1 levels, % of control): 243%
transglutaminase expression of keratinocytes (Transglutaminase (TG-1); all other concentrations): significantly increased transglutaminase expression of keratinocytes
activity at 0.5 µM (ZR75 cells; [1]): 69.7 ± 10%
activity at 1 µM (ZR75 cells; [1]): 58.8 ± 9%
activity at 10 µM (ZR75 cells; [1]): 208 ± 32.5%
activity at 20 µM (ZR75 cells; [1]): 135 ± 21.4%
activity at 40 µM (ZR75 cells; Homo sapiens, ZR75, read-out: DNA synthesis (% of Control), EXPT 1, 40 μM, control DMSO): 60.8 ± 26.4%
activity at 50 µM (ZR75 cells; Homo sapiens, ZR75, read-out: DNA synthesis (% of Control), EXPT 1, 50 μM, control DMSO): 4.1 ± 1.4%
activity at 0.5 µM (ZR75 cells; [2]): 56.8 ± 4.2%
activity at 1 µM (ZR75 cells; [2]): 60.5 ± 3.6%
activity at 5 µM (ZR75 cells; Homo sapiens, ZR75, read-out: DNA synthesis (% of Control), EXPT 2, 5 μM, control DMSO): 159 ± 4.1%
activity at 10 µM (ZR75 cells; [2]): 163 ± 13.7%
activity at 15 µM (ZR75 cells; Homo sapiens, ZR75, read-out: DNA synthesis (% of Control), EXPT 2, 15 μM, control DMSO): 119 ± 2.5%
activity at 20 µM (ZR75 cells; [2]): 68 ± 3.9%
proliferation of ZR 75 cells (ZR75 cells; concentration from 5 to 20 μM): increased proliferation of ZR 75 cells
